Test systems include 786-0 renal; A498 renal; DU-145 prostate; HT29 colon; IGROV1 ovarian; KM12 colon; MDA-MB-435; MOLT-4 leukemia; NCI/ADR-RES ovarian; OVCAR-3 ovarian; RPMI-8226 leukemia; RXF 393 renal; SK-MEL-28 melanoma; SK-MEL-5 melanoma; SNB-19 CNS; UACC-257 melanoma; HL-60(TB) leukemia.
Common to all, as to assay: NCI anticancer screen, dose series, 48 h

“And” between values parts separate entries of the source, which are not always exact repeats. Equal entries are not always repeated.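 Grown in 96-well plates, cells were treated for 48 hours with each compound at five concentrations. Insufficient inhibition: endpoint recorded as highest concentration tested. Here, GI50 denotes the concentration required for 50% inhibition of growth. TGI denotes the concentration required for complete inhibition of growth.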

`CCC1C(NC(=O)OC)C(=O)N1[C@@H](C)c1ccccc1` (stereo partly drawn): the TGI with 786-0 renal, with A498 renal, with DU-145 prostate, in the test with HT29 colon, with IGROV1 ovarian and in the test on KM12 colon was greater than 100 µM each time. Further, the TGI in the test with MDA-MB-435, with MOLT-4 leukemia, in the test with NCI/ADR-RES ovarian, in the test with OVCAR-3 ovarian, in the test with RPMI-8226 leukemia and with RXF 393 renal was greater than 100 µM in each case. The TGI with SK-MEL-28 melanoma, with SK-MEL-5 melanoma, with SNB-19 CNS and with UACC-257 melanoma was greater than 100 µM throughout.
Consider `Cc1ccc(S(=O)(=O)N(CCN)c2cc3c4c(c2)Oc2cccc5c2C4c2c(cccc2O3)O5)cc1`, for which the TGI with 786-0 renal was 30.2 µM; in the test with A498 renal, greater than 100 µM; in the test on HT29 colon, 28.6 µM; with IGROV1 ovarian, 23.7 µM; in the test on KM12 colon, greater than 100 µM; in the test on MDA-MB-435, 60.3 µM. In addition, the TGI in the test on MOLT-4 leukemia is greater than 100 µM; with NCI/ADR-RES ovarian, 22.5 µM; with OVCAR-3 ovarian it was 42.2 µM; with RPMI-8226 leukemia, greater than 100 µM; in the test with SK-MEL-28 melanoma it was 66.3 µM; in the test with SK-MEL-5 melanoma, 45.5 µM. Also, the TGI with SNB-19 CNS is greater than 100 µM; in the test with UACC-257 melanoma it was 98.4 µM.
Take `COc1ccccc1NC1Oc2cc3c(cc2C(c2cc(OC)c(OC)c(OC)c2)C1C)OCO3` (stereo not drawn): the TGI in the test on 786-0 renal was 36.8 µM; in the test on A498 renal it was greater than 30 µM; with DU-145 prostate, greater than 100 µM; with HL-60(TB) leukemia it was 3.36 µM; in the test with HT29 colon it was greater than 100 µM; in the test on IGROV1 ovarian, greater than 100 µM. Moreover, the TGI is 29.4 µM in the test with KM12 colon; 33 µM with MOLT-4 leukemia; greater than 33.1 µM in the test with NCI/ADR-RES ovarian; 21 µM in the test on RPMI-8226 leukemia; 7.62 µM in the test with RXF 393 renal; greater than 100 µM with SK-MEL-28 melanoma. For the same compound, the figures for the TGI with SK-MEL-5 melanoma, with SNB-19 CNS and in the test on UACC-257 melanoma were 16.8 µM, greater than 100 µM and greater than 100 µM, respectively.
In the case of `CC1(C)CN(CC(=O)O)CC(Cc2ccc(OCC(=O)O)cc2)N(CC(=O)O)CC(C)(C)SS1` (stereo not drawn), the TGI in the test on 786-0 renal, with A498 renal, in the test on DU-145 prostate, in the test on HT29 colon, in the test with IGROV1 ovarian and in the test with KM12 colon was greater than 100 µM in each case. For the same compound, the TGI in the test with MDA-MB-435, in the test on MOLT-4 leukemia, in the test on NCI/ADR-RES ovarian, in the test on OVCAR-3 ovarian, in the test on RPMI-8226 leukemia and in the test on RXF 393 renal was greater than 100 µM in each case. Further, the TGI in the test on SK-MEL-28 melanoma, in the test with SK-MEL-5 melanoma, with SNB-19 CNS and with UACC-257 melanoma was greater than 100 µM throughout.
Turning to `N=S(c1ccccc1[N+](=O)[O-])c1ccccc1[N+](=O)[O-]`, the TGI in the test on 786-0 renal is 3.93 µM and 4.67 µM; with A498 renal, 43.5 µM and 32.2 µM; in the test on DU-145 prostate, 7.38 µM; in the test with HL-60(TB) leukemia, 2.57 µM and 3.39 µM; with HT29 colon, 5.16 µM and 8.69 µM; in the test with IGROV1 ovarian, 4.49 µM and 6.5 µM. For the same compound, the TGI in the test with KM12 colon is 7.31 µM and 16.7 µM; with MOLT-4 leukemia, 4.7 µM and 20.4 µM; in the test with OVCAR-3 ovarian, 1.63 µM and 3.05 µM; in the test with RPMI-8226 leukemia, 4.47 µM and 18.8 µM; in the test on RXF 393 renal it was 5.6 µM and 14.4 µM; in the test with SK-MEL-28 melanoma, 10.9 µM and 11.3 µM. The TGI was 3.83 µM and 8.22 µM with SK-MEL-5 melanoma; 22.5 µM and 20.9 µM in the test with SNB-19 CNS; 6.51 µM and 10.1 µM in the test on UACC-257 melanoma. For the same compound, the GI50 was 1.54 µM and 3.83 µM with HT29 colon; 3.93 µM with MOLT-4 leukemia; 3.93 µM in the test with RPMI-8226 leukemia.
Consider `CC(=O)C1C(=O)C(=O)N(c2ccc([N+](=O)[O-])cc2[N+](=O)[O-])C1=O` (stereo not drawn), for which the TGI in the test with 786-0 renal, in the test with DU-145 prostate, in the test with HL-60(TB) leukemia, with HT29 colon, in the test on IGROV1 ovarian and with KM12 colon was greater than 100 µM each time. In addition, the TGI in the test on MDA-MB-435, in the test with MOLT-4 leukemia, with NCI/ADR-RES ovarian, in the test on OVCAR-3 ovarian, with RXF 393 renal and with SK-MEL-28 melanoma was greater than 100 µM each time. The TGI with SK-MEL-5 melanoma, in the test on SNB-19 CNS and with UACC-257 melanoma was greater than 100 µM throughout.
Regarding `CCOC(=O)c1c(CN2CCNCC2)nc2ccc(Cl)cc2c1-c1ccccc1`, the TGI in the test with 786-0 renal was found to be 3.15 µM; in the test on A498 renal, 23.4 µM; in the test with DU-145 prostate, 31.9 µM; in the test with HL-60(TB) leukemia, 4.38 µM; in the test on HT29 colon, 3.68 µM; in the test on IGROV1 ovarian it was 17.1 µM. The TGI with KM12 colon was 7.18 µM; with MDA-MB-435 it was 8.21 µM; in the test with MOLT-4 leukemia, 4.57 µM; in the test with OVCAR-3 ovarian it was 20.2 µM; with RPMI-8226 leukemia, 4.89 µM; in the test with RXF 393 renal, 10.7 µM. In addition, the TGI with SK-MEL-28 melanoma was 7.04 µM; with SK-MEL-5 melanoma, 2.16 µM; in the test on SNB-19 CNS it was 28.4 µM; in the test on UACC-257 melanoma, 3.62 µM.
On to `Cc1cccc2c(N)c3cccc(C(=O)NCC[N+](C)(C)Cc4ccccc4[N+](=O)[O-])c3nc12`, for which the TGI in the test on 786-0 renal was 12.7 µM; in the test on A498 renal, greater than 29.3 µM; with DU-145 prostate, greater than 100 µM; in the test on HT29 colon, 19.8 µM; in the test with IGROV1 ovarian it was greater than 100 µM; with KM12 colon, greater than 100 µM. In addition, the TGI is greater than 46.9 µM with MDA-MB-435; 9.34 µM in the test on MOLT-4 leukemia; greater than 37.1 µM in the test on NCI/ADR-RES ovarian; greater than 91.4 µM in the test on OVCAR-3 ovarian; greater than 58.3 µM with RPMI-8226 leukemia; greater than 37.7 µM in the test on RXF 393 renal. The TGI is greater than 71.1 µM in the test with SK-MEL-28 melanoma, greater than 41.1 µM in the test on SK-MEL-5 melanoma, greater than 100 µM in the test with SNB-19 CNS and greater than 70.7 µM with UACC-257 melanoma.
For the compound `CC(C)CC(=O)CC(C)[C@]1(CCCOCc2ccccc2)C(=O)N2CCC3(C[C@@]24CCC[C@H]41)OCCO3` (stereo partly drawn), the TGI with 786-0 renal, in the test on A498 renal, in the test on HL-60(TB) leukemia, with IGROV1 ovarian, with KM12 colon and in the test on MDA-MB-435 was greater than 10 µM in each case. In addition, the TGI in the test with MOLT-4 leukemia, in the test with NCI/ADR-RES ovarian, with OVCAR-3 ovarian, in the test with RPMI-8226 leukemia, in the test with SK-MEL-5 melanoma and in the test on SNB-19 CNS was greater than 10 µM each time.

Values taken from PubChem BioAssay (NCI).
